Experimental data as given in patent US20090181910A1, “METHOD OF PREVENTION AND ALLEVIATION OF TOXICITY BY MODULATION OF IRF3” (priority 2006, published 2009).

Key:
[1] = tested on: Hes1; assay: BMM Q-PCR: Hes1 mRNA; format: cell-based, Murine; details: FIG. 9b
[2] = tested on: RXRα; format: cell-based, Murine
[3] = tested on: PXR/RXR ER6 binding region of CYP3A4; assay: ChIP with anti-RXRα antibody at CYP3A4; format: cell-based, human; details: combinatorial treatment with rifampicin 25 μM and polyI:C, 24 hours; FIG. 10g and h
Experimental: FIG. 10: PolyI:C transcriptional repression of RXRα is critical for repression of nuclear receptor target genes. a, Wildtype, IRF3^−/− and IFNAR^−/− BMMs were stimulated with Control (DMSO), or LG268 (10 nM) with or without polyI:C (1 μg/ml). RNA was analyzed by Q-PCR. b, pCMV-RAW 264.7 cells (MT) or pCMV-Hes1-RAW 264.7 cells (Hes1) were stimulated with Control (DMSO) and 9cRA with or without polyI:C (1 μg/ml) for 24 hrs. RNA was analyzed by Q-PCR. c, RAW264.7 cells transfected with siNS or siHes1 duplex oligos were stimulated with Control (DMSO) and 9cRA (10 μM) with or without polyI:C (1 μg/ml) for 24 hours. RNA was analyzed by Q-PCR. d, pBabe-RAW 264.7 cells (Raw_MT) and pBabe-RXRα-RAW264.7 cells (Raw-RXRα) were stimulated with Control (DMSO) or LG268 (10 nM) with or without polyI:C (1 μg/ml) for 24 hrs. RNA was analyzed by Q-PCR. e, pBabe-Huh7 cells (Huh7 MT) and pBabe-RXRα-Huh7 cells (Huh7-RXRα) were stimulated with Control (DMSO) and rifampicin (25 μM) with or without polyI:C (2 μg/ml, transfected). RNA was analyzed by Q-PCR. f, pBabe-Huh7 cells (Huh7 MT) and pBabe-RXRα-Huh7 cells (Huh7_RXRα) were stimulated with Control (DMSO) and ASA (20 μg/ml) with or without polyI:C (2 μg/ml, transfected). RNA was analyzed by Q-PCR. g,h, BMMs were stimulated with rifampicin (25 μM) and polyI:C (1 μg/ml) for 24 hours. […] PCR products on gel are quantified by ImageJ, normalized to Input. […]

[4] = tested on: hepatic LXR, FXR and PPARα target genes; format: cell-based, human
[5] = Survival following APAP treatment; format: in vivo, mice; details: for survival against APAP overdose: APAP 600 mg/kg
Experimental: FIG. 4: Percentage survival following APAP treatment with or without polyI:C. (A) Wildtype (n=8) fasted and were treated with 0.1% NaCl or polyI:C (100 μg) intravenous (i.v.) 24 hours prior to treatment with APAP (600 mg/kg) by intraperitoneal (i.p.) injection. (B) Wildtype and IRF3−/− (n=6-8) fasted and were treated with 0.1% NaCl or polyI:C (100 μg) intravenous (i.v.) 24 hours prior to treatment with APAP (600 mg/kg) by intraperitoneal (i.p.) injection. (C) Wildtype mice (n=6-8) fasted and were treated with 0.1% NaCl or polyI:C (100 μg) intravenous (i.v.) and PCN (75 mg/kg) intraperitoneal (i.p.) 24 hours prior to treatment with APAP (175 mg/kg) by intraperitoneal (i.p.) injection.
Age and sex matched 6-9 week old mice were used for all experiments. C57/B16 mice were obtained from Jackson Laboratory. IRF3^−/− mice were obtained from Dr. T. Taniguchi. For APAP hepatotoxicity analysis, mice fasted for […] and then administered Vehicle (0.1% NaCl) or APAP (175-600 mg/kg) by intraperitoneal injection (i.p.). For serum and histological studies, mice were sacrificed at 6-7 hours post injection and serum and liver samples were retrieved. For survival studies, mice were studied for up to 5 days. For polyI:C studies, mice were also treated with 0.1% NaCl or polyI:C (100 μg) intravenous (i.v.) 12-24 hours prior to APAP treatment. To study the effects of PCN on APAP treatment, mice were treated with PCN (75 mg/kg) or control (1% DMSO, corn oil) by intraperitoneal (i.p.) 12-24 hours prior to APAP treatment. To study the effects of ethanol (EtOH) on APAP treatment, mice were given 20% EtOH in water ad libidum for 5 days prior to APAP therapy. PolyI:C treatment for these experiments occurred at Day 3 and Day 5. Serum alanine aminotransferase (ALT) levels were determined using manufacturer's protocol (TECO Diagnostics). For H&E staining, liver samples were fixed in formalin for 48 hours. H&E stainings were done by UCLA Tissue Procurement Core Laboratory (TPCL).

[6] = Dolphin et al. 1987; cited from earlier work

polyinosinic:polycytidylic acid [polyI:C]
Hes1 mRNA ([1]; LPS 10 ng/ml or polyI:C 1 μg/ml 4 hrs): potently induced | Hes1 induction in IRF3^−/− and IFNAR^−/− BMMs ([1]; polyI:C 1 μg/ml 4 hrs): involves IRF3, but not Type I IFNs | polyI:C-mediated inhibition of RXRα mRNA in knockout BMMs [2]: defective in IRF3^−/− BMMs but not IFNAR^−/− BMMs | RXRα mRNA repression, extended time course ([2]; 1, 4 or 8 hrs, FIG. 8b): more potent repressor of RXRα mRNA than LPS | RXRα mRNA in BMMs ([2]; LPS 10 ng/ml or polyI:C 1 μg/ml, 4 hours, FIG. 8a): repressed RXRα mRNA | RXRα primary transcripts ([2]; polyI:C 4 or 8 hrs, exon-intron primers, FIG. 9a): strongly repressed | RXRα mRNA stability ([2]; polyI:C 2 hours then Actinomycin D, FIG. 9a): No significant differences | RXRα present on CYP3A4 promoter (ChIP) [3]: maximal loss of RXRα in the PXR/RXR ER6 binding region of CYP3A4 | effect on LXR, FXR and PPARα-mediated induction of target genes [4]: inhibited | survival against APAP overdose ([5]; IRF3 deficient mice, FIG. 4B): did not protect from APAP overdose | survival with APAP plus PCN ([5]; polyI:C 100 μg i.v. and PCN 75 mg/kg before APAP 175 mg/kg, FIG. 4C): prevents overdose from the combination of APAP and cytochrome P450 inducers such as PCN | survival against APAP overdose ([5]; wildtype mice, polyI:C 100 μg i.v. 24 h prior, FIG. 4A): extremely effective at preventing death from APAP overdose | ASA metabolism after polyI:C treatment [6]: results in defective ASA metabolism
